Test results published in US20030186943A1, “Substituted gamma-phenyl-delta-lactams and uses related thereto” (Inflazyme Pharmaceuticals Ltd., priority 1998, published 2003).
“And” between values parts separate entries of the source, which are not always exact repeats. Equal entries are not always repeated.

Tests used:
[1] = tested on: IL-2 production in concanavalin A stimulated primary human CD4+ T-cells; assay: IL-2 production (Th1 profile) in concanavalin A stimulated primary human CD4+ T-cells; type: cell-based; details: conA stimulated CD4+ selected cells
Source text: The assay on the primary human T-cells involves their activation by concanavalin A (conA); (Sigma, Catalogue No. C 5275), followed by ELISA detection for cytokines for either profile. In the case of Th1-profiles, IL-2 and INF-γ are used as benchmarks while IL-10 is the indicator for a Th2-profile. Biologically, these indicators are useful in that IL-2 is the major T-cell mitogen while IL-10 represents a powerful yet selective immunosuppressive agent.
Approximately 60 cc of whole human blood was collected into ACD anti-coagulant vacutainer tubes. 15 mL Ficoll Paque 1077 was aliquoted into 6 sterile 50 mL conical tubes. 10 mL of blood was slowly layered on top of the Ficoll Paque by holding the tube upright and resting the pipette tip at the inside edge of the tube and allowing the blood to slowly run down the side of the tube. Tubes were spun at 1700 rpm for 30 minutes at room temperature. The plasma layer above the leukocyte band was aspirated off and a pasteur pipette was used to lift off the leukocyte band and transfer it to a sterile 50 mL conical tube. Cells from each leukocyte gradiant tube were transferred to a separate 50 mL conical tube. Sterile PBS pH 7.4 was added to each 50 mL conical tube containing cells from leukocyte band to a volume of 50 mL. Tubes were spun at 1100 rpm for 10 minutes. Supernatant was aspirated off and the cells were resuspended in 50 mL PBS pH 7.4. Tubes were re-centrifuged at 1100 rpm for 10 minutes. Supernatant was aspirated off and the cells were resuspended in appropriate medium at a density of 5×10^7 cells/mL or 2×10^6 cells/mL.
CD 4+T-cell Preparation: Cells from Leukocyte preparation were resuspended in sterile PBS pH 7.4 supplemented with 2-6% Fetal Bovine Serum (FBS) at a density of 5×10^7 cells/mL. Cells were then ready for isolation.
100 μL of antibody cocktail (Stem Cell Technologies, Catalogue No. 14062) was added for each mL of cells and mixed well. Cells+Ab cocktail was incubated on ice for 30 minutes. After 30 minute incubation, 60 μL of magnetic colloid was added for each mL of cells, and mixed well. Cells+Ab cocktail+magnetic colloid were incubated on ice for 30 minutes. After a final 30 minute incubation cells were ready for magnetic cell separation.
Sample was loaded into the top of a column. The stopcock was turned to allow the flow of media down through the column, and the media was collected into a collection tube. PBS supplemented with 2-6% FBS was added to the column until three column volumes had been collected (not including the volume of the start sample). Cells were washed, counted, and resuspended in RPMI 1640 with 10% FBS+2 mM L-glutamine at a density of 1×10^6 cells/mL.
CD4+ T-cells were isolated as described above. Cells were suspended in RPMI 1640 media (Stem Cell Technologies Inc.; Catalogue No. 36750) with 10% FBS+2 mM L-glutamine at a density of 1×10^6 cells/mL. Cells were maintained on ice as test compounds were prepared. Test compounds were prepared in a sterile 96-well assay plate at 50×the final desired test concentration, all wells contained an equal amount of dimethylsulfoxide vehicle. 500 μL of CD4^+ T-cells were added to each well of 24-well assay plate. 10 μL of each test compound working solution was added to the appropriate wells; two wells were left as stimulated and non-stimulated controls. 10 μL of concanavalin A (50×the final concentration) at 10 μg/mL was added to each well with the exception of the non-stimulated control wells. Cells were incubated at 37° C. for 48 hours. Conditioned media is then assessed by ELISA for the quantity of IL-2, […], TNFα and IL-10 present.
Tables 5A, 5B and 5C represent a synopsis of data across individuals with respects to the potency of compounds of the invention in their ability to inhibit cytokines that are likely to promote or depress a Th1 or Th2 response. […]

[2] = tested on: High Affinity Rolipram Binding Site of PDE4 in Mouse Brain; assay: Displacement of [3H]-rolipram from its high affinity binding site (HARBS); details: ratio of IC50 for PDE4 catalytic activity to concentration displacing 50% of rolipram from HARBS
CD8+ T-cells = assay: CD8+ T-cell proliferation (2C-TCR transgenic); type: cell-based, mouse; details: at 5 μM
Source text: 2C-TCR transgenic mice (Sha W. C. et al., Nature 335:271-274, 1988) were used to provide a source of naive antigen specific CD8+T cells. The 2C-T cell antigen receptor recognizes the 2C peptide derived from the mitochondrial alpha-ketoglutarate dehydrogenase enzyme in the context of the Db class I MHC molecule.
To test the efficacy of a test compound in naive CD8+ T cell activation and proliferation, single cell suspensions of 2C lymph node (LN) T cells were isolated from 2C-TCR transgenic mice. 2C-T cells were stimulated with irradiated TAP−/− H-2d splenocytes or L^d transfected TAP−/− T2 cell line in the presence of varying concentrations of 2C peptide (0-10 uM). Proliferation was assessed by ^3H thymidine incorporation. Cell surface activation phenotype of T cells was performed by flow cytometric analysis

Th1 cells = assay: Proliferation of differentiated Th1 CD4+ T cells; type: cell-based, mouse; details: CD4+ T cells already differentiated into Th1 phenotype
Protocol: The differentiation of naive CD4 T cells toward Th1 and Th2 lineages was performed as follows: 1×10^5 AND-lymph node T cells were cultured with […] B10.BR irradiated spleen cells in 2 ml of culture media with the following supplements: for Th1 cell differentiation, 100 U/mL IFNγ, 25U/mL IL2 and 10 ug/mL anti-IL4; for Th2 cell differentiation, 150 U/mL IL4, 25 U/mL IL2 and 10 ug/mL anti-IFNγ. After 3-4 days the wells were split 1:4 with the same additions. After 7 days the cells were harvested and washed 3 times to remove cytokines in the supernatents. 1×10^5 cultured cells were restimulated with 5×10^5 irradiated B10BR spleen cells +5 μM pcc peptide in 250 μl culture media without any added cytokines. The supernatents were harvested after 40 hrs and assessed for IL2, IL4 and IFNγ by ELISA. Test compounds were added throughout the differentiation of the culture.
Cultured Th1 and Th2 cells generated in the absence of test compounds were tested for proliferation and cytokine activity as described above during antigen stimulation in the presence of compound.

[3] = tested on: tail skin allograft rejection (C57BL/6 donor, BALB/c recipient mice); assay: Murine tail skin allograft transplantation model; type: in vivo, mouse; details: 10 mg/kg i.p. twice daily
Protocol: Tail skin from donor H-2 b C57BL/6 mice was transplanted onto recipient female H-2^d BALB/c mice (Lagodzinski, Z. et al., Immunology 71:148-150 (1990)). Five mice were included per group. […] Test compounds and CsA were administered twice daily intraperitoneally at a dose of 10 mg/kg beginning at one day prior to transplantation and for 15 days after transplantation, including the day of transplantation. Mice were monitored and scored daily over 15 days post transplantation for graft rejection.
Skin allograft rejection is primarily mediated by T lymphocytes with little evidence for a major role of antibodies under most circumstances. Skin allograft rejection requires the activation of helper and cytotoxic effector T cell populations. Graft rejection was assessed by monitoring allograft necrosis. Because tail skin is visibly distinct from the surrounding trunk skin of the mouse, the course of rejection can be easily monitored. Fully intact grafts were scored as 100%. Complete graft rejection was defined as >90% graft necrosis. Acute graft rejection generally proceeds via a series of visually obvious events beginning with swelling and erythema of the graft. These events are followed by graft desiccation and scab formation over most or all of the graft, signaling the loss of the viable graft tissue. Scab formation is subsequently followed by shrinkage and scar formation.

**Q.** Which “Th1 versus Th2 cytokine profile” value [1] does the source give for `COc1ccc([C@H]2COC(=O)C(Cc3ccc(OC4CCCC4)c(OC)c3)C2)cc1OC` (stereo partly shown) [Compound 136] here?
**A.** Its value is “selective inhibition of a Th1 profile”.

**Q.** And the “PDE4:HARBS” value [2]?
**A.** Its value is less than 1.

**Q.** What about the “inhibition of CD8+ T-cell proliferation” value (CD8+ T-cells) of the same molecule?
**A.** The value was “approx. 40%”.

**Q.** What about the “inhibition of Th1 cells” value (Th1 cells) of the same molecule?
**A.** The value was “approx. 30%”.

**Q.** And the “Average graft survival” value ([3]; from one day prior to and for 15 days after transplantation)?
**A.** Its value is 15.4 days and 15.4 ± 1.3 days.

**Q.** What about the “Allograft survival rate (% at 9 days post-transplant)” value ([3]; 9 days post-transplant) of the same molecule?
**A.** The value was 100%.

**Q.** What about the “# grafts surviving beyond 16 days p.t.” value ([3]; five mice per group) of the same molecule?
**A.** Its value is 3.
